Experimental findings from US5506354A, “Imidazolylpiperazinyl steroids” (The Upjohn Company, priority 1992, dated 1996) are described below.

Where a name gives a salt, the structure may show the parent alone.

One assay deals with mucous secretion. The assay is described as follows: Inhibition of mucous secretion assay of Johnson. The conditions noted are these: for inhibition of mucous secretion (activity in words): induced mucous secretions; for preferred mucous inhibitors by the test results (in words): test results disclose. An excerpt: According to this procedure compounds which inhibit or block enhancement of induced mucous secretions when tested are considered to be "active".

The subject of the next assay is arachidonic acid. The assay is described as follows: Arachidonic Acid Antagonism Assay (AAAA), LD50 of sodium arachidonate. The assay is classed as in vivo, Charles River male CF-1 mice. Conditions: test compound IV 15 min before sodium arachidonate; LD50 outside 95% confidence interval of control. The method, boiled down:
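Male CF-1 mice (18–22 g) received test compound IV in 1.0% Tween-80/0.1% HCl. LD50 was derived by Spearman-Karber (log dose interval 0.05, N=6), and activity was defined as LD50 elevation outside the control's 95% confidence interval.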

Another assay has as its system angiogenesis. The assay is described as follows: Chick embryo assay of Folkman (inhibition of angiogenesis / tumor growth). The conditions noted are these: 50 μg/10 μl in the presence of heparin. It is filed as in vivo. How it is done:
According to this procedure compounds which are considered to be "active" (i.e. antiangiogenic) give an avascular zone of 4 mm or greater in some embryos when tested at 50 μg/10 μl in the presence of 50 μg/10μ of heparin.

Assay [1] relates to conjugated diene formation. Nature of the assay: Conjugated Diene Formation Assay (rat brain synaptosomes). It is filed as biochemical. The conditions noted are these: 100 μM (or less) of drug; active = inhibition by 50% or more. The text has this:
The formation of conjugated dienes as assayed by Braughler, J. Neurochem., 44, 1282 (1985), Bucher, Fund. Applied Tox., 3, 222 (1983) and Tein, Arch. Biochem. Biophy., 216, 142 (1982) is a standard pharmacological laboratory procedure useful for identifying compounds which inhibit lipid peroxidation. Since lipid peroxidation is involved in the pathophysiology of central nervous system trauma, compounds which inhibit conjugated diene formation are useful in treating the conditions listed below.
44, 1282 (1985). Synaptosomal suspension (10 μl) is added to 1 ml of physiological (normal) saline containing 1% Lubrol PX (Sigma Chemical Co. St. Louis, Mo.), 100 μM hydrogen peroxide and 100 μM (or less) of the drug to be tested prepared in either absolute ethanol or water depending upon solubility. The reaction is started by the rapid addition of 200 μM ferrous ammonium sulfate prepared in argon-purged water. The sample is rapidly mixed and the change in absorbence at 232 nm is followed in a Gifford Response Spectrophotometer equipped with a rapid sampler. Due to the rapidity of the reaction, rapid addition of the iron, rapid mixing and sampling are obligatory to the accuracy of the assay. For best results absorbence readings of one/sec should be started within 5 sec following the addition of iron. The initial linear rate of absorbence change during the first 30 sec of reaction are compared with the rate of a reaction containing all reagents except synaptosomes. The difference in rates is the rate of conjugated diene formation. Rates with drug are compared to rates obtained in the absence of drug and the % inhibition is calculated. A compound that inhibits conjugated diene formation by 50% or more is considered to be "active".

For another assay, the system named is MDA formation. Nature of the assay: Malonyldialdehyde (MDA) Formation Assay (rat brain synaptosomes). The conditions noted are these: 10 min at 37°, pH 7.0; active = 50% or more at 200 μM or less. It is filed as biochemical. On the procedure:
Since lipid peroxidation is involved in the pathophysiology of center nervous system trauma, compounds which inhibit MDA formation are useful in treating the conditions listed below.
While not necessary to determine MDA formation, the above assays have been modified as follows: rat brain synaptosomes are prepared as described in the Example about the conjugated diene assay, except that the final wash of the synaptosomes and final suspension are in physiological (normal) saline in which the pH has been adjusted to 7.0. The synaptosomes are incubated for 10 min at 37° in physiological (normal) saline pH 7.0 (total volume=100 ul) containing; 10 ul synaptosomal suspension, 10% DMSO plus or minus drug, 150 uM Fe^+++ and 50 uM Fe++. The incubation is started by the rapid addition of iron to the otherwise complete reaction. The iron solutions are prepared fresh as ferric chloride and ferrous ammonium sulfate in argon-purged water. Following the 10 min incubation, the reaction is stopped by the addition of 500 ul ice-cold 12% trichloroacetic acid prepared in 0.5N hydrochloric acid. Water (300 ul) is then added along with 100 ul of freshly prepared thiobarbituric acid (3.3% in 0.5N sodium hydroxide) and 10 ul of 5 mM desferrioxamine. The sample is then heated in a boiling water bath for 20 minutes. The samples are cooled and centrifuged for 15 minutes at 1500×g and the absorbence of the supernatant fraction is read at 532 nm. The % inhibition of MDA formation is calculated by dividing the absorbance of sample containing drug by the absorbence of samples incubated without drug. Reaction blanks are samples incubated in the absence of iron. A compound that inhibits MDA formation by 50% or more at a concentration of 200 μM or less is considered "active".

For the next assay, the system named is interleukin-1. Nature of the assay: Inhibition of interleukin-1 induced T cell proliferation. The assay is classed as cell-based. The conditions noted are these: for inhibition of interleukin 1 (activity in words): active = greater than 30% at 10^-6 M. An excerpt: The inhibition of interleukin-1 induced T cell proliferation assay, Proc. Nat. […] Since people with arthritis make excess interleukin 1, compounds which inhibit the activity of interleukin 1 are useful in the treatment of arthritis. According to this procedure compounds which inhibit the activity of interleukin 1 greater that 30% at 10^-6 M are considered to be "active".

In another assay the test system is mouse head injury. The assay is described as follows: in vivo mouse head injury procedure of Hall (1 hr neurological recovery, grip test). The conditions noted are these: statistically significant (p<0.05).

For the compound `CS(=O)(=O)O.C[C@]12CCC(=O)C=C1CC[C@@H]1C2=CC[C@@]2(C)[C@H]1CC[C@]2(O)C(=O)CN1CCN(c2ccccn2)CC1` [Example 2, 17α-Hydroxy-21-[4-(2-pyridinyl)-1-piperazinyl]pregna-4,9(11)-diene-3,20-dione methanesulfonate], in the assay with mucous secretion, the “inhibition of mucous secretion (activity in words)” value (from here on “inhibition of mucous secretion”) is “demonstrate such activity” and the “preferred mucous inhibitors by the test results (in words)” value (from here on “preferred mucous inhibitors … (in words)”) was “preferred mucous inhibitors”. For the same compound, in the assay on arachidonic acid, the “arachidonic acid antagonism (activity in words)” value (“arachidonic acid antagonism” for short) is given as “demonstrate arachidonic acid antagonism”. Moreover, in the assay with angiogenesis, the “% of Embryos with 4 mm or Greater Avascular Zone” value is 85%. In addition, the “inhibition of conjugated diene formation (activity in words)” value (“inhibition of conjugated diene formation” below) in assay [1] is on record as “demonstrate such activity”.
For the compound `CCN(CC)c1cc(N2CCN(CC(=O)[C@@]3(O)CC[C@H]4[C@@H]5CCC6=CC(=O)CC[C@]6(C)C5=CC[C@@]43C)CC2)nc(N)n1` [Example 4, 21-[4-[2-Amino-6-(diethylamino)-4-pyrimidinyl]-1-piperazinyl]-17α-hydroxypregna-4,9(11)-diene-3,20-dione], the “inhibition of mucous secretion” value in the assay on mucous secretion is given as “demonstrate such activity”. Moreover, in the assay on arachidonic acid, the “arachidonic acid antagonism” value is recorded as “demonstrate arachidonic acid antagonism”. The “inhibition of conjugated diene formation” value in assay [1] is “demonstrate such activity”.
Turning to `C[C@]12CCC(=O)C=C1CC[C@@H]1C2=CC[C@@]2(C)[C@H]1CC[C@]2(O)C(=O)CN1CCC(O)(c2ccc(C(F)(F)F)cc2)CC1` [Example 5, 17α-Hydroxy-21-[4-hydroxy-4-(4-trifluoromethyl)-phenyl-1-piperidinyl]-pregna-4,9(11)-diene-3,20-dione], in assay [1], the “inhibition of conjugated diene formation” value is recorded as “demonstrate such activity”.
Turning to `C[C@H]1C[C@@H]2C(=CC[C@@]3(C)[C@H]2CC[C@]3(O)C(=O)CN2CCN(c3cc(N4CCCC4)nc(N4CCCC4)n3)CC2)[C@@]2(C)C=CC(=O)C=C12` [Example 47, 17α-hydroxy-6α-methyl-21-[4-[2,6-bis(1-pyrrolidinyl)-4-pyrimidinyl]-1-piperazinyl]pregna-1,4,9(11)-triene-3,20-dione (E)-2-butenodioate salt], the “arachidonic acid antagonism” value with arachidonic acid is given as “demonstrate arachidonic acid antagonism”. The “inhibition of MDA formation (activity in words)” value (from here on “inhibition of MDA formation”) in the assay on MDA formation is “demonstrate such activity”. Besides, the “inhibition of conjugated diene formation” value in assay [1] is reported as “demonstrate such activity”. Moreover, the “inhibition of interleukin 1 (activity in words)” value in the assay with interleukin-1 is recorded as “demonstrate inhibition of interleukin 1”.
For the compound `CCN(CC)c1cc(N2CCN(CC(=O)[C@H]3CC[C@H]4[C@@H]5CCC6=CC(=O)CC[C@]6(C)[C@H]5[C@H](O)C[C@]34C)CC2)nc(N(CC)CC)n1.Cl.Cl` [Example 69, 21-[4-[2,6-bis(diethylamino)-4-pyrimidinyl]-1-piperazinyl]-11α-hydroxypregn-4-ene-3,20-dione dihydrochloride], the “% Increase in 1 hr Post-Injury Grip Test Scores After 3 mg/kg” value in the assay on mouse head injury was found to be 199.7%.
Regarding `CS(=O)(=O)O.CS(=O)(=O)O.C[C@@H]1C[C@H]2[C@@H]3CCC4=CC(=O)C=C[C@]4(C)C3=CC[C@]2(C)[C@H]1C(=O)CN1CCN(c2cc(N3CCCC3)nc(N3CCCC3)n2)CC1` [Example 83, 16α-Methyl-21-[4-(2,6-bis(1-pyrrolidinyl)-4-pyrimidinyl]-1-piperazinyl]pregna-1,4,9(11)-triene-3,20-dione dimethane-sulfonate], in the assay with mucous secretion, the “inhibition of mucous secretion” value is “demonstrate such activity” and the “preferred mucous inhibitors … (in words)” value is reported as “preferred mucous inhibitors”. In addition, in the assay on angiogenesis, the “inhibition of angiogenesis (activity in words)” value (“inhibition of angiogenesis” below) is given as “demonstrate inhibition of angiogenesis”. Further, the “inhibition of MDA formation” value in the assay with MDA formation was “demonstrate such activity”. In addition, in assay [1], the “inhibition of conjugated diene formation” value is listed as “demonstrate such activity”. The “inhibition of interleukin 1 (activity in words)” value with interleukin-1 is recorded as “demonstrate inhibition of interleukin 1”.
For the compound `C[C@@H]1C[C@H]2[C@@H]3CCC4=CC(=O)C=C[C@]4(C)[C@H]3[C@H](O)C[C@]2(C)[C@H]1C(=O)CN1CCN(c2cc(N3CCCC3)nc(N3CCCC3)n2)CC1` [Example 84, 11α-hydroxy-16α-methyl-21-[4-[2,6-bis(1-pyrrolidinyl)-4-pyrimidinyl]-1-piperazinyl]pregna-1,4-diene 3,20-dione], the “inhibition of conjugated diene formation” value in assay [1] is recorded as “demonstrate such activity”. Besides, the “inhibition of interleukin 1 (activity in words)” value in the assay on interleukin-1 is reported as “demonstrate inhibition of interleukin 1”.
Broadly, the % Inhibition is the share of the control response that was lost under treatment. Higher therefore signals strong suppression. Take `C[C@@H]1C[C@H]2[C@@H]3CCC4=CC(=O)C=C[C@]4(C)C3=CC[C@]2(C)[C@H]1C(=O)CN1CCN(c2cc(N3CCOCC3)nc(N3CCOCC3)n2)CC1` [Example 86, 16α-methyl-21-[4-[2,6-bis(4-morpholino)-4-pyrimidinyl]-1-piperazinyl]-pregna-1,4,9(11)-triene-3,20-dione]: the “inhibition of angiogenesis” value in the assay with angiogenesis is given as “demonstrate inhibition of angiogenesis”. The “inhibition of MDA formation” value with MDA formation was “demonstrate such activity”. In addition, in assay [1], the “inhibition of conjugated diene formation” value was “demonstrate such activity”. Moreover, the “inhibition of interleukin 1 (activity in words)” value with interleukin-1 is “demonstrate inhibition of interleukin 1”. In addition, the “% Inhibition at 10^-6 M” value in the assay with interleukin-1 (interleukin 1, 10^-6 M) was determined as 84%.
For the compound `C[C@]12CCC(=O)C=C1CC[C@@H]1C2=CC[C@@]2(C)[C@H]1CC[C@]2(O)C(=O)CN1CCN(c2cc(N3CCOCC3)nc(N3CCOCC3)n2)CC1` [Example 105, 21-[4-(2,6-Bis(4-morpholino)-4-pyrimidinyl)-1-piperazinyl]-17α-hydroxypregna-4,9(11)-diene-3,20-dione dihydrochloride, hydrate], in the assay with mucous secretion, the “inhibition of mucous secretion” value is listed as “demonstrate such activity” and the “preferred mucous inhibitors … (in words)” value was “preferred mucous inhibitors”. Moreover, the “inhibition of angiogenesis” value in the assay on angiogenesis was “demonstrate inhibition of angiogenesis”. Further, the “inhibition of interleukin 1 (activity in words)” value in the assay with interleukin-1 is given as “demonstrate inhibition of interleukin 1”.
Consider `C[C@]12C=CC(=O)C=C1CC[C@@H]1C2=CC[C@]2(C)[C@@H](C(=O)CN3CCN(c4cc(N5CCCC5)nc(N5CCCC5)n4)CC3)CC[C@@H]12.Cl.Cl` [Example 111, 21-[4-(2,6-Bis(1-pyrrolidinyl)-4-pyrimidinyl)-1-piperazinyl]pregna-1,4,9(11)-triene-3,20-dione dihydrochloride], for which the “inhibition of conjugated diene formation” value in assay [1] is recorded as “demonstrate such activity”.
As to `CC(CN1CCN(c2cc(N3CCCC3)nc(N3CCCC3)n2)CC1)[C@H]1CC[C@H]2[C@@H]3CCC4=CC(=O)C=C[C@]4(C)[C@H]3CC[C@]12C.CS(=O)(=O)O.O` (stereo partly drawn) [Example 112, 21-[4-(2,6-Bis(1-pyrrolidinyl)-4-pyrimidinyl)-1-piperazinyl]-20-methylpregna-1,4-dien-3-one methanesulfonate, hydrate], the “inhibition of conjugated diene formation” value in assay [1] is given as “demonstrate such activity”.
